Measurements: patent US20040072842A1 (published 2004)

melting point	Compound
166 to 168 °C	O=C(COCc1ccccc1)N1CCN(c2ccc(N3C[C@H](CNC(=S)C(F)F)OC3=O)cc2)CC1
151 to 152 °C	O=C(CO)N1CCC(c2ccc(N3C[C@H](CNC(=S)C(F)F)OC3=O)cc2F)CC1
